Laboratory results reported in US20230116196A1, “METHOD OF TREATING CNS DISORDERS WITH NEU[…] GABAERGIC COMPOUNDS” (priority 2017, published 2023).

Tests used:
DGGCs from mutant mice = experiment: sIPSC decay time in DGGCs from mutant mice; type: cell-based, mouse; conditions: 100 nM ALLO
Method: The ability of 100 nM ALLO to modulate the decay time of sIPSCs was compared in DGGCs from WT and S940A mice as detailed in FIG. 2.

GT1-7 cells = experiment: Patch-clamp of GABA-induced currents (IGABA) in GT1-7 cells; type: cell-based; conditions: 100 nM in electrolyte, GABA EC20, 20 min time course
Method: Patch-clamp recordings were made from GT1-7 cells. The magnitude of the GABA-induced currents (IGABA) at EC20 agonists concentration were then measured, in the presence of control electrolyte or that supplemented with 100 nM ALLO, or 100 nM ORG OD 02-0 over a time course of 20 min.

[1] = test system: GABAA receptor α4 and β3 subunits; experiment: Biotinylation: cell surface levels of GABAA receptor subunits in hippocampal slices; type: cell-based, mouse; conditions: for GABAA-β3-containing receptors at the plasma membrane / cell surface stability of the β3 subunit: acute hippocampal slices
Method: Hippocampi were dissected out of acute slices from 8 to 12 week old C57/Bl6 mice and lysed with […] including: 20 mM Tris-HCl, 150 mM NaCl, 5 mM EDTA, 10 mM NaF, 2 mM Na3VO4, 10 mM pyrophosphate, 0.1% SDS and 1% Triton after drug treatment. The β3 subunit was isolated using immunoprecipitation with β3 antibodies, after correction for protein content and the specific activity of labeling. Results were attained by SDS/PAGE followed by autoradiography (Abramian et al., 2010). For biotinylation experiments hippocampi were dissected out of acute slices from 8 to 12 week old C57/Bl6 mice and incubated in artificial cerebrospinal fluid (ACSF) described above at 30° C. for 1 h for recovery before experimentation. Slices were then placed on ice and incubated for 30 min with 1 mg/mL NHS-SS-biotin (Pierce). Excess biotin was removed by a 50 mM glycine quenching buffer, followed by washing of slices three times in ice-cold ACSF. The tissue was snap frozen on dry ice for 5 min, thawed at 4° C. and lysed. The lysates were solubilized with 2% Triton at 4° C. on a rotating wheel for 1 h. The insoluble material was removed by centrifugation, and 350-500 μg of protein lysate were incubated with NeutrAvidin beads (Pierce) for 18-24 h at 4° C. Bound material was eluted with sample buffer and subjected to SDS/PAGE and then immunoblotted with the indicated antibodies. Blots were then quantified using the CCD-based ChemiDoc XRS ? system. Antibodies against the β3 subunit and the phospho-β3 antibody were generated and verified by the laboratory of S.J.M. (Vien et al., 2015).
Hippocampal slices were treated as outlined above. Treated slices were then subject to biotinylation and lysis, and surface fractions were isolated on immobilized avidin. Surface (S) and total (T) fractions were immunoblotted with α4 and β3 subunit antibodies.
The ratio of surface/total (S/T) immunoreactivity was then normalized to levels seen in control (100%).

DGGCs from S408/9A mice = experiment: Sustained effect on tonic current in DGGCs from S408/9A mice; type: cell-based, mouse; conditions: 100 nM, washout
[2] = test system: GABAA receptor α4 subunit S443; experiment: Immunoblot of α4 S443 phosphorylation in hippocampal slices; type: cell-based, mouse; conditions: 100 SGE-516 for 5 min
Method: Treatment of hippocampal slices with SGE-516 increased the phosphorylation of S408/9 measured using pS408/9 antibodies. To produce antibodies specific for phosphorylated S443, rabbits were injected with a synthetic peptide corresponding to residues […] of the murine α4 subunit in which the serine residue corresponding to S443 was chemically phosphorylated; […]. Hippocampal slices were treated with vehicle (Con), or SGE-516 for 20 min. Slices were immunoblotted with pS408/9, β3, or actin antibodies. The ratio of pS408/9/β3 immunoreactivity was then normalized to control slices (100%=the line).
Affinity purified pS443 was used to immunoblot varying concentrations of the immunizing phosphor-peptide (PP). pS443 was used to immunoblot extracts of hippocampal slices treated without preadsorption (0), preadsorbed with the dephosphorylated (DP), or phosphorylated antigen (PP). […] Moreover, the detection of this band was blocked by the phospho—but not the dephospho-antigen (FIG. 7B).
Hippocampal slices were treated with vehicle (Con) or 100 SGE-516 for 5 min and then immunoblotted with pS443 and α4 antibodies as indicated. pS443 immunoreactivity in hippocampal slices was increased by exposure to SGE-516, while total α4 levels were unaffected (FIG. 7C).

[3] = test system: dentate gyrus granule cells (DGGCs); experiment: sIPSCs in DGGCs after 15 min NAS exposure and >30 min wash; type: cell-based, mouse
Method: Bar graphs show average sIPSC decay and amplitude.
For tonic current measurements, an all-points histogram was plotted for a 10 s period before and during 100 μM picrotoxin application, once the response reached a plateau level. Recordings with unstable baselines were discarded. Fitting the histogram with a Gaussian distribution gave the mean baseline current amplitude and the difference between the amplitudes before and during picrotoxin was considered to be the tonic current. The negative section of the all-points histogram which corresponds to the inward IPSCs was not fitted with a Gaussian distribution (Kretschmannova et al., 2013; Nusser and Mody, 2002). Series resistance and whole-cell capacitance were continually monitored and compensated throughout the course of the experiment. Recordings were eliminated from data analysis if series resistance increased by >20%. Spontaneous inhibitory post-synaptic currents (sIPSCs) were analyzed using the mini-analysis software (version 5.6.4; Synaptosoft, Decatur, Ga.). […] Only recordings with a minimum of 200 events fitting these criteria were analyzed. sIPSCs amplitude, and frequency from each experimental condition was pooled and expressed as mean±SEM. To measure sIPSC decay, 100 consecutive events were averaged and the decay was fitted to a double exponential and the weighted decay constant (tw) was determined. […]

[4] = test system: GABAARs containing the α4 and β subunits, S408/9A mice; experiment: Biotinylation: cell surface levels of GABAARs in hippocampal slices from S408/9A mice; type: cell-based, mouse; conditions: 100 nM, 20 min
Method: Consistent with the examples above, hippocampal slices from WT and S408/9A mice were treated for 20 min with 100 nM SGE-516 or vehicle (Con) and subjected to biotinylation followed by immunoblotting with β and α4 subunit antibodies. The ratio of surface/total (S/T) immunoreactivity was then normalized to levels seen in control (100%).

[5] = test system: GABAA receptor α4 S443 and β3 S408/9; experiment: Phosphorylation of S443 and S408/9 in brains of mice after IP injection; type: in vivo, mouse; conditions: 5 mg/kg IP, 30 min after treatment
Method: C57/B16 mice injected with SGE-516 (5 mg/kg IP), or vehicle. 30 min after the treatment mice were sacrificed by microwave irradiation. SDS-soluble hippocampal extracts were then immunoblotted with pS443, α4, pS408/9, or β3 subunit antibodies.

| SMILES | sIPSC decay time in the mutant mice (DGGCs from mutant mice) | GABA-evoked currents recorded from GT1-7 cells (GT1-7 cells) | GABAA-β3-containing receptors at the plasma membrane / cell surface stability of the β3 subunit ([1]; 100 nM) | tonic current in S408/9A mice (DGGCs from S408/9A mice) | pS443 immunoreactivity in hippocampal slices [2] | total α4 levels [2] | plasma membrane levels of GABAARs containing the α4 and β subunits, S/T normalized to control (100%) ([1]; WT mice slices, 100 nM, 20 min) | plasma membrane accumulation of both the α4 and β3 subunits ([1]; hippocampal slices, surface/total) | SGE-516 enhancement of sIPSC amplitude in presence of GFX ([3]; 100 nM SGE-516 with GFX) | sIPSC amplitude following exposure and wash ([3]; 100 nM, 15 min, >30 min wash) | increase of plasma membrane levels of GABAARs in slices from S408/9A mice [4] | phosphorylation of S443 and S408/9 in the brains of mice [5] |
| --- | --- | --- | --- | --- | --- | --- | --- | --- | --- | --- | --- | --- |
| CC(=O)[C@H]1CC[C@H]2[C@@H]3CC[C@H]4C[C@H](O)CC[C@]4(C)[C@H]3CC[C@]12C [ALLO, Allopregnanolone] | did not increase | sustained increases | increases | – | – | – | – | – | – | – | – | – |
| C[C@@]1(O)CC[C@@]2(C)[C@H](CC[C@@H]3[C@@H]2CC[C@]2(C)[C@@H](C(=O)Cn4nccn4)CC[C@@H]32)C1 [SGE-516] | – | – | increases | did not modify | increased | unaffected | 175-185% | increased | significantly reduced | significantly enhanced | not seen | increased |
